Data reported in patent US12404304B1, “Telomerase reverse transcriptase (TERT) expression enhancing compounds and methods for using the same” (Sierra Sciences, LLC, priority 2007, dated 2025).
Where two headings read alike, the source gives them in different places.

Assays:
[1] = tested on: human TERT expression (hTERT mRNA); assay: Quantitative real-time RT-PCR of hTERT mRNA expression (Ct, transcripts) in compound-treated cells; format: cell-based
In short: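 Read-out is cycle threshold, the cycle at which probe fluorescence released by Taq 5′-nuclease activity crosses a set level; Ct falls as hTERT mRNA rises. cDNA of treated and untreated cells was compared, with starting transcripts quantified against a known-cDNA standard curve.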

viable cells in culture = assay: Cell viability assay (CellTiter-Glo Luminescent Cell Viability Assay, ATP quantitation, percent of vehicle control)

Structure (SMILES) | Average Number of hTERT Transcripts ([1]; quantitative real-time RT-PCR) | Average Cell Viability after 24 Hours (% DMSO) (viable cells in culture) | Average Number of hTERT Transcripts [1]
CC(C)CN1CC23C=CC(O2)C(C(=O)OCc2ccccc2)C3C1=O (stereo not drawn) [compound 1347] | 12.01 | 118.20 | 
CCOC(=O)CSc1nc(C)c(CC)c(C)c1C(N)=O [compound 1348] | 5.97 | 106.19 | 
O=C(CCN1C(=O)c2cccc3cccc(c23)C1=O)Nc1ccon1 [compound 1349] | 12.52 | 76.50 | 
CC(C)Cc1nnc(SCC(=O)Nc2ccc(Br)cn2)[nH]1 [compound 1350] | 5.91 | 98.43 | 
CC1CCN(C(=O)CN(Cc2ccc(F)cc2)S(C)(=O)=O)CC1 [compound 1351] | 5.17 | 98.19 | 
CC(C)COc1ccc(NC(=O)C2CC2)cc1 [compound 1352] | 5.61 | 83.84 | 
Cc1ccc(NC(=O)NCc2ccccc2F)cc1C [compound 1353] | 3.61 | 87.98 | 
O=C(O)/C=C1\NC(=O)c2ccccc21 [compound 1354] | 14.31 | 96.80 | 
O=C(O)CC12CC3CC(C1)CC(CC(=O)O)(C3)C2 [compound 1355] | 4.95 | 95.78 | 
O=C(NCCc1ccncc1)C(F)(F)F [compound 1356] | 5.18 | 101.39 | 
COC(=O)c1cc(OC)c(OC)cc1NC(=S)N1CCN(C)CC1 [compound 1357] | 9.07 | 95.29 | 
CNC(=O)C1CCN(Cc2ccc(F)cc2)CC1 [compound 1358] | 7.53 | 111.88 | 
CCCn1c(=O)n(CC)c(=O)c2ccccc21 [compound 1359] | 13.21 | 104.81 | 
CCOc1ccc(N2C(=O)CC(N3CCC4(CC3)OCCO4)C2=O)cc1 (stereo not drawn) [compound 1360] | 16.98 | 108.82 | 
CSc1nc2nc(C)c(C(C)=O)c(C)n2n1 [compound 1361] | 17.57 | 109.24 | 
CCCOc1ccc2c(c1)c1c3n2CCN(C)C3=NCC1 [compound 1362] | 15.20 | 75.90 | 
CC1(C)CC(NC(=O)c2ccc(S(=O)(=O)N3CCOCC3)cc2)CC(C)(C)N1 [compound 1363] | 32.11 | 89.56 | 
Cc1ccc(N2CC(C(=O)N3CC(C)CC(C)C3)CC2=O)c(C)c1 (stereo not drawn) [compound 1364] | 9.06 | 104.57 | 
Cc1ccc(N2CC(C(=O)N3CCCC3)CC2=O)c(C)c1 (stereo not drawn) [compound 1365] | 10.67 | 99.89 | 

Structure (SMILES) | Average Number of hTERT Transcripts ([1]; quantitative real-time RT-PCR) | Average Cell Viability after 24 Hours (% DMSO) (viable cells in culture) | Average Number of hTERT Transcripts [1]
CCc1nc2[nH]c3c(c(=O)n2n1)CCC3 [compound 1366] | 10.02 | 99.48 | 
Nc1ccc(OCCCc2ccccc2)cc1 [compound 1367] | 7.25 | 94.27 | 
C=C(C)Cn1c(CCO)nc2ccccc21 [compound 1368] | 9.25 | 106.63 | 
Cc1nn2c(-c3cccnc3)nnc2s1 [compound 1369] | 15.35 | 98.38 | 
C=CCNS(=O)(=O)c1ccc(C(=O)N2CCCCC2C)cc1 (stereo not drawn) [compound 1370] |  | 107.18 | 11.58
CCC(=O)Nc1c(Br)cc(C)cc1C(=O)O [compound 1371] |  | 105.87 | 5.46
O=S(=O)(Nc1cccc2cccnc12)N1CCCCCC1 [compound 1373] |  | 65.74 | 37.20
Cc1ccccc1NC(=O)C1CC(Cl)=CCC1C(=O)O (stereo not drawn) [compound 1374] |  | 107.65 | 5.48
CCC(C)NC(=S)Nc1ccc([N+](=O)[O-])cc1 (stereo not drawn) [compound 1375] |  | 92.06 | 11.45
Cc1ccccc1NC(=O)C1CCN(S(=O)(=O)c2ccc(Br)cc2)CC1 [compound 1376] |  | 88.77 | 4.72
CC(C)C(=O)NC(c1ccc(C(C)C)cc1)c1ccc2ccccc2c1O (stereo not drawn) [compound 1377] |  | 67.09 | 10.23
CCC(C)c1ccccc1OCCCCN1CCN(C)CC1 (stereo not drawn) [compound 1378] |  | 89.06 | 11.15
O=C(O)c1ccc(NC(=S)NC(=O)c2cccc(Cl)c2)cc1 [compound 1379] |  | 82.14 | 12.37
Brc1cccc(OCCCN2CCCCC2)c1 [compound 1380] |  | 104.34 | 5.98
COc1ccc(C(=O)NC(=S)Nc2ccc(C(=O)O)cc2)cc1 [compound 1381] |  | 87.38 | 8.62
COc1ccc(OCCCN2CCN(c3ccccc3OC)CC2)cc1 [compound 1382] |  | 98.31 | 6.08
O=C(O)c1ccc(NC(=S)NC(=O)c2cccc3ccccc23)cc1 [compound 1383] |  | 74.00 | 53.78
O=C(O)c1ccc(NC(=S)NC(=O)c2ccccc2I)cc1 [compound 1384] |  | 84.52 | 7.88
O=[N+]([O-])c1ccc(S(=O)(=O)Nc2cc(Cl)ccc2O)cc1 [compound 1385] |  | 78.86 | 21.71

Structure (SMILES) | Average Number of hTERT Transcripts ([1]; quantitative real-time RT-PCR) | Average Cell Viability after 24 Hours (% DMSO) (viable cells in culture) | Average Number of hTERT Transcripts [1]
O=C(Nc1ccc(OC(F)(F)C(F)F)cc1)c1ccccc1O [compound 1386] |  | 30.71 | 11.93
COC(=O)COc1ccc(CSc2nnc(-c3ccc(Cl)cc3)n2-c2ccccc2)cc1 [compound 1388] |  | 29.68 | 42.56
CN1CCCC(OC(=O)COc2ccc(F)cc2)C1 (stereo not drawn) [compound 1389] |  | 93.93 | 9.17
Cc1ccc(C)c(OCC(=O)Nc2cc(Cl)c(Cl)cc2Cl)c1 [compound 1390] |  | 106.51 | 4.81
CC(=O)Nc1ccccc1NS(=O)(=O)c1cccs1 [compound 1391] |  | 87.67 | 4.95
CCC(C)NC(=S)Nc1ccc(F)cc1 (stereo not drawn) [compound 1392] |  | 102.61 | 4.99
O=C(CCc1ccccc1)NC(c1ccc([N+](=O)[O-])cc1)c1c(O)ccc2ccccc12 (stereo not drawn) [compound 1393] |  | 62.25 | 23.22
CCn1c(=S)[nH]c2scc(-c3ccc(OC)cc3)c2c1=O [compound 1394] |  | 100.14 | 7.00
O=C(Nc1nc2ccc([N+](=O)[O-])cc2s1)c1cncc(Br)c1 [compound 1395] |  | 63.84 | 39.44
Cc1cc(OCC(=O)Nc2ccc(S(=O)(=O)Nc3nccs3)cc2)ccc1C(C)C [compound 1396] |  | 88.25 | 12.14
O=C(Oc1ccc([N+](=O)[O-])cc1)c1cc(S(=O)(=O)N2CCOCC2)cs1 [compound 1397] |  | 96.05 | 5.00
CCCCN(CC)C(=O)CSc1ccccc1 [compound 1398] |  | 87.02 | 8.01
COC(=O)COc1ccc2c(=O)c(Oc3ccc(-c4ccccc4)cc3)coc2c1 [compound 1400] |  | 80.39 | 12.41
O=C(CSc1nc2ccccc2c(=O)n1-c1ccc(Cl)cc1)Nc1cccc(Cl)c1 [compound 1401] |  | 96.20 | 7.24
Cc1oc2cc(OCC(=O)OCc3ccccc3)ccc2c(=O)c1Oc1ccccc1 [compound 1402] |  | 86.55 | 29.82
COc1cc(C2C(C(=O)c3ccc(C)o3)=C(O)C(=O)N2CCCN2CCOCC2)cc(OC)c1OC (stereo not drawn) [compound 1403] |  | 95.26 | 9.95
COC(=O)c1ccc(NC(=O)CSc2nnc(CNC(=O)c3ccccc3)n2C)cc1 [compound 1404] |  | 104.14 | 10.87
CCn1c(COc2ccc(C(C)C)cc2)nnc1SCC(=O)Nc1nccs1 [compound 1405] |  | 110.82 | 3.33
COc1ccc(C2CC(=O)C3=C(C2)Nc2ccccc2N(C(=O)CCC(=O)O)C3c2cccnc2)cc1OC (stereo not drawn) [compound 1406] |  | 105.29 | 4.62
